Patent US4418075A, “Epoxysuccinyl amino acid derivatives” (Taisho Pharmaceutical Co., Ltd., priority 1979, dated 1983)

What was measured:
[1] = target: T1, CANP prepared from a muscle of hereditary muscular dystrophy chicken (Gallus gallus, UniProt P00789); assay: CANP inhibitory activity (method of Ishiura et al.); assay type: biochemical; settings: 50% inhibition as molar ratio to the enzyme
T1 construct: CANP prepared from a muscle of hereditary muscular dystrophy chicken; from tissue; host or cells: muscle of hereditary muscular dystrophy chicken
T1 sequence (P00789 1-705): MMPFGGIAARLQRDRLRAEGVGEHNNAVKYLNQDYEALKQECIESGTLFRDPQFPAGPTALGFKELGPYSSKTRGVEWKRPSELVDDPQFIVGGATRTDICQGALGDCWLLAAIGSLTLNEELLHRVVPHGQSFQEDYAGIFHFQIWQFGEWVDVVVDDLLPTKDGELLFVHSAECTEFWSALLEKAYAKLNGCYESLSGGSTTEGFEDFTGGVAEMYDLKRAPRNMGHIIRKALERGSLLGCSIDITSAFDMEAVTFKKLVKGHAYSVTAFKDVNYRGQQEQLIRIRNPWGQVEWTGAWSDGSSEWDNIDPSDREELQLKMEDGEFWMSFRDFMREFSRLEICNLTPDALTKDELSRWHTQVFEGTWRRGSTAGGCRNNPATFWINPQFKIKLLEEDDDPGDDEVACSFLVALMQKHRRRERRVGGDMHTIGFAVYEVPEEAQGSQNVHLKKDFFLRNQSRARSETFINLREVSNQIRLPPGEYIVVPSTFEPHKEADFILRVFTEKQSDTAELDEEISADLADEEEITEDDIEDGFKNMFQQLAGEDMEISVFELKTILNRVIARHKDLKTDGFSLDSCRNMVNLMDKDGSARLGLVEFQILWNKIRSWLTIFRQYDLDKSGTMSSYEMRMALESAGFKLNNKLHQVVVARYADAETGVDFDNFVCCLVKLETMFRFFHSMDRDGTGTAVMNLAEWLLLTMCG
Method: Their muscular dystrophy inhibitory activity was assayed by the method of Ishiura et al., [J. Biochem., 84, 225 (1978)] using CANP prepared from a muscle of hereditary muscular dystrophy chicken, and the resulting value for 50% inhibition in the molar ratios for the enzyme expressed as ID50 (mole/mole) is shown in Table 1 below.

[2] = Concentration in rat plasma after subcutaneous administration; assay type: in vivo; settings: sc, rats, 50 mg/kg, an hour after administration
Method: The compounds of the present invention are better absorbed by the subcutaneous route in mammals such as rats or rabbits, as compared with the epoxysuccinic acid derivatives of the German Patent Laid Open Application described above and Chemical Abstracts, 87, 68129a (1977). To determine absorption, these compounds were administered subcutaneously to rats at a dose of 50 mg/kg, and the concentration of the test compound in rat plasma at an hour after the administration is shown in following Table 1.

[3] = in vivo
Method: The response was evaluated by the blueing spot at 15 minutes after the dye injection.

papain = target: T2, papain (Carica papaya, UniProt P00784); assay: Papain inhibitory activity (method of K. Hanada et al.); assay type: biochemical; settings: amount of inhibitor for 50% inhibition; papain 80 μg/ml, Sigma, twice crystallized
T2 construct: purchased Sigma Chem. Co
T2 sequence (P00784 134-345): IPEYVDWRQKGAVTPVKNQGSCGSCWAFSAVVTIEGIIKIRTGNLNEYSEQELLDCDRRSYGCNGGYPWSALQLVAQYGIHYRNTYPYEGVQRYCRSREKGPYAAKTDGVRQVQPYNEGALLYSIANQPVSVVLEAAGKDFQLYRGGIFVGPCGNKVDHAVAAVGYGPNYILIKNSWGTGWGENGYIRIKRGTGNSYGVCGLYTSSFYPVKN
Method: Papain inhibitory activity of the compounds of the present invention was assayed by the method of K. Hanada et al [Argic. Biol. Chem., 42, (3)523(1978)] using papain (80 μg/ml, Sigma Chem. Co.) after twice crystallization.

Row | SMILES | CANP Inhibitory Activity ID50 (mole/mole) [1] | concentration at 1 h [2] | Acceleration of vascular permeability, Relative effect (%) to E-64 [3] | Papain inhibitory activity ID50 (papain)
1 | CCOC(=O)C1OC1C(=O)N[C@@H](CC(C)C)C(=O)NCCCCNC(=O)OCc1ccccc1 (stereo partly drawn) [F, N--[N--(DL3-trans-ethoxycarbonyloxirane-2-carbonyl)-L-leucyl] N'--benzyloxycarbonyl1,4-diaminobutane, reference compound] | 480 mole/mole | < 1000 ng/mL | – | –
2 | CC(C)C[C@H](NC(=O)[C@H]1O[C@@H]1C(=O)O)C(=O)NCCCCN=C(N)N [Compound E-64, N-[N-(L-3-trans-carboxyoxirane-2-carbonyl)-L-leucyl]agmatine, reference compound] | – | – | 100.0% | –
3 | CC(C)C[C@H](NC(=O)C1OC1C(=O)O)C(=O)NCCCCCN (mixture of isomers) [Compound 2, N-[N-(DL-3-trans-carboxyoxirane-2-carbonyl)-L-leucyl]-1,5-diaminopentane] | 54 mole/mole | 20000 ng/mL | 2.3% | 0.105 µg
4 | CC(C)C[C@H](NC(=O)[C@H]1O[C@@H]1C(=O)O)C(=O)NCCCCCCCN [Compound 1, N-[N-(L-3-trans-carboxyoxirane-2-carbonyl)-L-leucyl]-1,7-diaminoheptane] | 33 mole/mole | 15000 ng/mL | 2.8% | 0.103 µg
5 | CC(C)C[C@H](NC(=O)C1OC1C(=O)O)C(=O)NCCCCCCCNC(=O)OCc1ccccc1 (mixture of isomers) [Compound 3, N-[N-(DL-3-trans-carboxyoxirane-2-carbonyl)-L-leucyl]-N'-benzyloxycarbonyl-1,7-diaminoheptane] | 20 mole/mole | 11000 ng/mL | 2.4% | 0.203 µg
